The text below walks through data of patent publication US7767716B2, “Acyl hydrazines as kinase inhibitors, in particular for SGK” (Merck Patent GmbH, priority 2005, dated 2010).

Several values for one entry are separate records, joined by “and”; a condition that tells them apart may be missing. Equal entries are not always repeated.

For `O=C(Cc1cccc(O)c1)NNC(=O)c1cc([N+](=O)[O-])cc([N+](=O)[O-])c1`, the melting point (as a rule, the temperature, or range, at which the solid turns liquid) was 248 to 249 °C.

Regarding `O=C(Cc1cccc(O)c1)NNC(=O)c1ccc(O)cc1O` [compound 1], the melting point was 233 to 235 °C.

With `O=C(Cc1cccc(O)c1)NNC(=O)c1ccc(OCc2ccccc2)cc1` [compound 2], the melting point lay in the range of 199 to 200 °C.

Molecule `O=C(Cc1cccc(O)c1)NNC(=O)c1ccc(O)cc1` [compound 3] showed a melting point of 207 to 208 °C.

Turning to `O=C(Cc1cccc(O)c1)NNC(=O)c1cccc(OCc2ccccc2)c1` [compound 4], the melting point was 152 to 153 °C.

As for `O=C(Cc1cccc(O)c1)NNC(=O)c1ccccc1O` [compound 5], the melting point is 214 to 215 °C.

Regarding `O=C(Cc1cccc(O)c1)NNC(=O)c1cccc(O)c1` [compound 6], the melting point was in the range of 224 to 225 °C.

`O=C(Cc1cccc(O)c1)NNC(=O)c1ccc(OCc2ccccc2)cc1Cl` [compound 7] returned a melting point of 162 to 164 °C.

Take `O=C(Cc1cccc(O)c1)NNC(=O)c1ccc(O)cc1Cl` [compound 8]: the melting point was 165 to 166 °C.

In the case of `COc1cc(Cl)c(C(=O)NNC(=O)Cc2cccc(O)c2)cc1OC` [compound 9], the melting point is 174 to 175 °C.

With `COc1cc(I)c(C(=O)NNC(=O)Cc2cccc(O)c2)cc1OC` [compound 10], the melting point was in the range of 199 to 200 °C.

As to `COc1cc(C(=O)NNC(=O)Cc2cccc(O)c2)c([N+](=O)[O-])cc1OC` [compound 11], the melting point was in the range of 226 to 227 °C.

Consider `COc1cc(F)c(C(=O)NNC(=O)Cc2cccc(O)c2)c(F)c1` [compound 12], for which the melting point was in the range of 198 to 199 °C.

In turn, `COc1ccc(C(=O)NNC(=O)Cc2cccc(O)c2)c(C)c1` [compound 13] yielded a melting point of 171 to 172 °C.

Molecule `COc1cc(OCc2ccccc2)ccc1C(=O)NNC(=O)Cc1cccc(O)c1` [compound 14] returned a melting point of 193 to 194 °C.

`O=C(Cc1cccc(O)c1)NNC(=O)c1cc(Cl)ccc1Br` [compound 15]: the melting point was in the range of 212 to 213 °C.

For the molecule `O=C(Cc1cccc(O)c1)NNC(=O)c1ccc(OC(F)(F)F)cc1` [compound 16], the melting point is 189 to 190 °C.

On to `COc1ccccc1C(=O)NNC(=O)Cc1cccc(O)c1` [compound 17], for which the melting point was in the range of 181 to 182 °C.

For `Cc1cccc(C(=O)NNC(=O)Cc2cccc(O)c2)c1` [compound 18], the melting point lay in the range of 156 to 157 °C.

In turn, `COC(=O)c1ccc(C(=O)NNC(=O)Cc2cccc(O)c2)cc1` [compound 19] gave a melting point of 201 to 202 °C.

`O=C(Cc1cccc(O)c1)NNC(=O)c1cccc([N+](=O)[O-])c1` [compound 20] came in with a melting point of 179 °C.

`O=C(Cc1cccc(O)c1)NNC(=O)c1ccccc1F` [compound 21] came in with a melting point of 154 to 155 °C.

The molecule `Cc1ccc(C(=O)NNC(=O)Cc2cccc(O)c2)cc1` [compound 22] yielded a melting point of 175 to 176 °C.

The molecule `O=C(Cc1cccc(O)c1)NNC(=O)c1ccccc1Cl` [compound 23] came in with a melting point of 172 °C.

Consider `O=C(Cc1cccc(O)c1)NNC(=O)c1cccc(Cl)c1` [compound 24], for which the melting point was 183 to 184 °C.

As to `O=C(Cc1cccc(O)c1)NNC(=O)c1ccc(Cl)cc1Cl` [compound 25], the melting point is 202 to 203 °C.

`O=C(Cc1cccc(O)c1)NNC(=O)c1ccccc1I` [compound 27] displayed a melting point of 190 to 191 °C.

In turn, `O=C(Cc1cccc(O)c1)NNC(=O)c1ccc(Br)cc1` [compound 28] gave a melting point of 229 °C.

The molecule `COc1ccc(C(=O)NNC(=O)Cc2cccc(O)c2)c(OC)c1` [compound 29] displayed a melting point of 197 to 198 °C.

Take `Cc1ccccc1C(=O)NNC(=O)Cc1cccc(O)c1` [compound 30]: the melting point fell in the range of 197 to 198 °C.

As to `O=C(Cc1cccc(O)c1)NNC(=O)c1ccc(F)cc1` [compound 31], the melting point is 182 to 183 °C.

Turning to `O=C(Cc1cccc(O)c1)NNC(=O)c1ccc2ccccc2c1` [compound 32], the melting point lay in the range of 201 to 202 °C.

`O=C(Cc1cccc(O)c1)NNC(=O)c1cccc(Br)c1` [compound 33]: the melting point is 194 to 195 °C.

In turn, `O=C(Cc1cccc(O)c1)NNC(=O)c1cccc2ccccc12` [compound 34] returned a melting point of 210 to 211 °C.

`COc1cc(O)ccc1C(=O)NNC(=O)Cc1cccc(O)c1` [compound 35] displayed a melting point of 208 to 209 °C.

Molecule `COc1ccc(C(=O)NNC(=O)Cc2cccc(O)c2)cc1` [compound 36] returned a melting point of 158 to 159 °C.

For `O=C(Cc1cccc(O)c1)NNC(=O)c1cccc(F)c1` [compound 37], the melting point lay within 176 to 177 °C.

Consider `O=C(Cc1cccc(O)c1)NNC(=O)c1c(F)cccc1F` [compound 38], for which the melting point was 191 to 192 °C.

`N#Cc1cccc(C(=O)NNC(=O)Cc2cccc(O)c2)c1` [compound 39] had a melting point of 181.5 to 182.5 °C.

As for `O=C(Cc1cccc(O)c1)NNC(=O)c1cccc(Cl)c1Cl` [compound 40], the melting point is 220 to 221 °C.

Molecule `O=C(Cc1cccc(O)c1)NNC(=O)c1ccc(F)c(F)c1` [compound 41] displayed a melting point of 164 °C.

`CCOc1cccc(C(=O)NNC(=O)Cc2cccc(O)c2)c1` [compound 42] came in with a melting point of 130 to 132 °C.

On to `CC(C)(C)c1ccc(C(=O)NNC(=O)Cc2cccc(O)c2)cc1` [compound 43], for which the melting point is 183 to 184 °C.

In turn, `CCc1ccc(C(=O)NNC(=O)Cc2cccc(O)c2)cc1` [compound 44] registered a melting point of 155 to 156 °C.

In turn, `CCOc1ccc2ccccc2c1C(=O)NNC(=O)Cc1cccc(O)c1` [compound 45] displayed a melting point of 148 to 150 °C.

`O=C(Cc1cccc(O)c1)NNC(=O)c1ccc(SC(F)(F)F)cc1` [compound 46] yielded a melting point of 165 to 166 °C.

`O=C(Cc1cccc(O)c1)NNC(=O)c1ccccc1C(F)(F)F` [compound 47] yielded a melting point of 195 to 196 °C.

`O=C(Cc1cccc(O)c1)NNC(=O)c1cccc(OC(F)(F)F)c1` [compound 48] registered a melting point of 256 to 257 °C.

The molecule `O=C(Cc1cccc(O)c1)NNC(=O)c1ccccc1[N+](=O)[O-]` [compound 49] displayed a melting point of 206 to 207 °C.

On to `O=C(Cc1cccc(O)c1)NNC(=O)c1ccc(Cl)cc1` [compound 50], for which the melting point is 223 °C.

In the case of `O=C(Cc1cccc(O)c1)NNC(=O)c1ccccc1` [compound 51], the melting point lay in the range of 162 to 163 °C.

In the case of `O=C(Cc1cccc(O)c1)NNC(=O)c1cccc(C(Cl)Cl)c1` [compound 52], the melting point is 154 to 155 °C.

In turn, `O=C(Cc1cccc(O)c1)NNC(=O)c1cccc(C(F)(F)F)c1` [compound 53] returned a melting point of 161 to 162 °C.

In turn, `O=C(Cc1cccc(O)c1)NNC(=O)c1ccc(CCl)cc1` [compound 54] had a melting point of 175 to 176 °C.

With `COc1cccc(C(=O)NNC(=O)Cc2cccc(O)c2)c1` [compound 55], the melting point is 138 to 139 °C.

With `O=C(Cc1cccc(O)c1)NNC(=O)c1ccc([N+](=O)[O-])cc1` [compound 56], the melting point is 222 to 223 °C.

In turn, `Cc1cc(O)cc(O)c1C(=O)NNC(=O)Cc1cccc(O)c1` [compound 57] showed a melting point of 226 to 227 °C.

`Cc1cc(OCc2ccccc2)cc(OCc2ccccc2)c1C(=O)NNC(=O)Cc1cccc(O)c1` [compound 58] yielded a melting point of 165 to 166 °C.

Consider `CCc1cc(OCc2ccccc2)ccc1C(=O)NNC(=O)Cc1cccc(O)c1` [compound 59, N′-[2-(3-hydroxyphenyl)acetyl]-4-benzyloxy-2-ethylbenzohydrazide], for which the melting point fell in the range of 190 to 191 °C.

In turn, `CCc1cc(O)ccc1C(=O)NNC(=O)Cc1cccc(O)c1` [compound 60, N′-[2-(3-hydroxyphenyl)acetyl]-2-ethyl-4-hydroxybenzohydrazide] yielded a melting point of 199 to 200 °C.

`Cc1cc(O)c(C)c(O)c1C(=O)NNC(=O)Cc1cccc(O)c1` [compound 61]: the melting point was 193 to 194 °C.

For `CCc1cc(O)cc(O)c1C(=O)NNC(=O)Cc1cccc(O)c1` [compound 62], the melting point turned out to be 251 °C.

The molecule `O=C(Cc1cccc(O)c1)NNC(=O)c1c(O)cc(O)cc1Br` [compound 63] gave a melting point of 226 to 227 °C.

Consider `O=C(Cc1cccc(O)c1)NNC(=O)c1c(Br)cc(OCc2ccccc2)cc1OCc1ccccc1` [compound 64], for which the melting point was in the range of 194 to 195 °C.

In turn, `COc1ccc(CC(=O)NNC(=O)c2c(C)cc(O)cc2O)cc1O` [compound 66] displayed a melting point of 232 to 233 °C.

Molecule `O=C(Cc1cccc(O)c1)NNC(=O)c1c(O)cc(O)cc1O` [compound 68, N′-[2-(3-hydroxyphenyl)acetyl]-2,4,6-trihydroxybenzohydrazide] showed a melting point of 237 to 238 °C.

As for `CCCc1cc(O)cc(O)c1C(=O)NNC(=O)Cc1cccc(O)c1` [compound 69], the melting point fell in the range of 198 to 200 °C.

In the case of `O=C(Cc1cccc(O)c1)NNC(=O)c1c(O)cc(O)cc1Cl` [compound 70, N′-[2-(3-hydroxyphenyl)acetyl]-2-chloro-4,6-dihydroxybenzohydrazide], the melting point is 217 °C and 213 to 215 °C.

`O=C(Cc1cccc(O)c1)NNC(=O)c1ccc(O)cc1C(F)(F)F` [compound 71] showed a melting point of 210 to 212 °C.

The molecule `O=C(Cc1cccc(O)c1)NNC(=O)c1c(O)cc(O)cc1F` [compound 72] showed a melting point of 230 to 232 °C.

Consider `O=C(Cc1cccc(O)c1)NNC(=O)c1c(O)cc(O)cc1Br` [compound 73], for which the melting point amounted to 259 °C.

In the case of `O=C(Cc1cccc(O)c1)NNC(=O)c1ccc(O)c([N+](=O)[O-])c1` [compound 74, N′-[2-(3-hydroxyphenyl)acetyl]-4-hydroxy-3-nitrobenzohydrazide], the melting point fell in the range of 190 to 193 °C.

In turn, `Cc1cc(C(=O)NNC(=O)Cc2cccc(O)c2)ccc1O` [compound 75] displayed a melting point of 207 to 208 °C.

For the molecule `CC(C)(C)c1cc(C(=O)NNC(=O)Cc2cccc(O)c2)ccc1O` [compound 76], the melting point fell in the range of 154 to 157 °C.
